For the experiment, the system named is BDF1 mice, s.c. Lewis lung carcinoma, T/C %. Put plainly: NCI In Vivo Anticancer Drug Screen. Data for tumor model Lewis Lung Carcinoma (subcutaneous) in B6D2F1 (BDF1) mice. In short, it runs like this:
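Antitumor effect in vivo is scored from survival or tumor burden, reported as treated relative to vehicle controls.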

Where [1] appears, read: endpoint: median survival time, dose: 6.25 mg/kg/injection, schedule: Q01DX009 (ip), vehicle: Klucel (hydroxypropylcellulose) (HPC), higher = longer survival.
Where [2] appears, read: endpoint: median survival time, dose: 12.5 mg/kg/injection, schedule: Q01DX009 (ip), vehicle: Klucel (hydroxypropylcellulose) (HPC), higher = longer survival.
Setting [3] is: endpoint: median survival time, dose: 25.0 mg/kg/injection, schedule: Q01DX009 (ip), vehicle: Klucel (hydroxypropylcellulose) (HPC), higher = longer survival.
The mark [4] stands for this setting: endpoint: median survival time, dose: 50.0 mg/kg/injection, schedule: Q01DX009 (ip), vehicle: Klucel (hydroxypropylcellulose) (HPC), higher = longer survival.
[5] abbreviates: endpoint: median survival time, dose: 2.5 mg/kg/injection, schedule: Q01DX009 (ip), vehicle: saline, higher = longer survival.
The mark [6] stands for this setting: endpoint: mean tumor weight, dose: 50.0 mg/kg/injection, schedule: Q01DX011 (ip), vehicle: saline, higher = larger tumour.
[7] abbreviates: endpoint: mean tumor weight, dose: 100.0 mg/kg/injection, schedule: Q01DX011 (ip), vehicle: saline, higher = larger tumour.
Where [8] appears, read: endpoint: mean tumor weight, dose: 50.0 mg/kg/injection, schedule: Q01DX011 (ip), vehicle: carboxymethylcellulose (CMC), higher = larger tumour.
[9] abbreviates: endpoint: mean tumor weight, dose: 100.0 mg/kg/injection, schedule: Q01DX011 (ip), vehicle: carboxymethylcellulose (CMC), higher = larger tumour.
Setting [10] is: endpoint: median survival time, dose: 100.0 mg/kg/injection, schedule: Q01DX009 (ip), vehicle: Klucel (hydroxypropylcellulose) (HPC), higher = longer survival.
Setting [11] is: endpoint: median survival time, dose: 200.0 mg/kg/injection, schedule: Q01DX009 (ip), vehicle: Klucel (hydroxypropylcellulose) (HPC), higher = longer survival.

From PubChem BioAssay AID270 (DTP/NCI, 2004) come the findings set out here.

Values joined by “and” are separate entries in the source; they are usually repeats but may differ in a detail not shown here. Identical values can stand only once. Records with an inconclusive call do not appear.

In the case of `O=NN(CCCl)C(=O)NCC1CCC(CNC(=O)N(CCCl)N=O)CC1` (stereo unspecified), the T/C is 50 % of control (endpoint: mean tumor weight, dose: 400.0 mg/kg/injection, schedule: Q01DX001 (ip), vehicle: carboxymethylcellulose (CMC), higher = larger tumour); 36 % of control (endpoint: mean tumor weight, dose: 600.0 mg/kg/injection, schedule: Q01DX001 (ip), vehicle: carboxymethylcellulose (CMC), higher = larger tumour); 92 % of control (endpoint: median survival time, dose: 3.12 mg/kg/injection, schedule: Q01DX009 (ip), vehicle: Klucel (hydroxypropylcellulose) (HPC), higher = longer survival); 93 % of control under setting [1]; 98 % of control under setting [2]; 100 % of control under setting [3].

Take `CCN(CC)CCCC(C)Nc1c2ccc(Cl)cc2nc2cc(Cl)ccc12` (stereo unspecified): the T/C runs as follows: under setting [2], 105 % of control; under setting [3], 97 % of control; under setting [4], 105 % of control.

In the case of `Oc1ccc(Nc2ccnc3cc(Cl)ccc23)cc1CN(CCCl)CCCl`, the T/C under setting [5] was 108 % of control.

As for `O=C(O)Cc1ccc(C2CCCCC2)cc1`, the T/C (endpoint: mean tumor weight, dose: 150.0 mg/kg/injection, schedule: Q01DX011 (ip), vehicle: carboxymethylcellulose (CMC), higher = larger tumour) is 67 % of control; the T/C (endpoint: mean tumor weight, dose: 225.0 mg/kg/injection, schedule: Q01DX011 (ip), vehicle: carboxymethylcellulose (CMC), higher = larger tumour) is 88 % of control; the T/C (endpoint: mean tumor weight, dose: 335.0 mg/kg/injection, schedule: Q01DX011 (ip), vehicle: carboxymethylcellulose (CMC), higher = larger tumour) was 100 % of control.

As for `COC1CCC(NC(=O)N(CCCl)N=O)CC1` (stereo unspecified), the T/C was 121 % of control (endpoint: median survival time, dose: 16.0 mg/kg/injection, schedule: Q01DX001 (ip), vehicle: saline with Tween-80, higher = longer survival) and 111 % of control (endpoint: median survival time, dose: 82.0 mg/kg/injection, schedule: Q01DX001 (ip), vehicle: saline with Tween-80, higher = longer survival).

Turning to `CC(=O)C1=C(O)C2(C)c3c(O)c(C)c(O)c(C(C)=O)c3OC2(Sc2ccccc2)CC1=O` (stereo unspecified), the T/C is 101 % of control (endpoint: median survival time, dose: 6.25 mg/kg/injection, schedule: Q01DX009 (ip), vehicle: gum acacia, higher = longer survival); 101 % of control (endpoint: median survival time, dose: 25.0 mg/kg/injection, schedule: Q01DX009 (ip), vehicle: gum acacia, higher = longer survival); 97 % of control (endpoint: median survival time, dose: 50.0 mg/kg/injection, schedule: Q01DX009 (ip), vehicle: gum acacia, higher = longer survival).

With `C1CCNCC1`, the T/C is 87 % of control (endpoint: mean tumor weight, dose: 6.25 mg/kg/injection, schedule: Q01DX011 (ip), vehicle: saline, higher = larger tumour); 87 % of control (endpoint: mean tumor weight, dose: 12.5 mg/kg/injection, schedule: Q01DX011 (ip), vehicle: saline, higher = larger tumour); 94 % of control (endpoint: mean tumor weight, dose: 25.0 mg/kg/injection, schedule: Q01DX011 (ip), vehicle: saline, higher = larger tumour); 73 % of control and 95 % of control under setting [6]; 83 % of control under setting [7].

As for `CN(C)C(=S)N=Nc1c(O)[nH]c2ccccc12`, the T/C by setting is: (endpoint: mean tumor weight, dose: 6.6 mg/kg/injection, schedule: Q01DX011 (ip), vehicle: carboxymethylcellulose (CMC), higher = larger tumour) 74 % of control; (endpoint: mean tumor weight, dose: 10.0 mg/kg/injection, schedule: Q01DX011 (ip), vehicle: carboxymethylcellulose (CMC), higher = larger tumour) 89 % of control; (endpoint: mean tumor weight, dose: 15.0 mg/kg/injection, schedule: Q01DX011 (ip), vehicle: carboxymethylcellulose (CMC), higher = larger tumour) 47 % of control and 65 % of control; (endpoint: mean tumor weight, dose: 30.0 mg/kg/injection, schedule: Q01DX011 (ip), vehicle: carboxymethylcellulose (CMC), higher = larger tumour) 50 % of control.

Take `O=CC(NC(=O)N(CCCl)N=O)C(O)C(O)C(O)CO` (stereo unspecified): the T/C was 121 % of control (endpoint: median survival time, dose: 1.25 mg/kg/injection, schedule: Q01DX009 (ip), vehicle: saline, higher = longer survival); 112 % of control under setting [5]; 105 % of control (endpoint: median survival time, dose: 3.3 mg/kg/injection, schedule: Q01DX009 (ip), vehicle: saline, higher = longer survival); 102 % of control (endpoint: median survival time, dose: 4.9 mg/kg/injection, schedule: Q01DX009 (ip), vehicle: saline, higher = longer survival); 118 % of control (endpoint: median survival time, dose: 5.0 mg/kg/injection, schedule: Q01DX009 (ip), vehicle: saline, higher = longer survival); 96 % of control (endpoint: median survival time, dose: 7.4 mg/kg/injection, schedule: Q01DX009 (ip), vehicle: saline, higher = longer survival). The T/C by setting is: (endpoint: median survival time, dose: 10.0 mg/kg/injection, schedule: Q01DX001 (ip), vehicle: Klucel (hydroxypropylcellulose) (HPC), higher = longer survival) 88 % of control and 109 % of control; (endpoint: median survival time, dose: 10.0 mg/kg/injection, schedule: Q01DX009 (ip), vehicle: saline, higher = longer survival) 111 % of control; (endpoint: median survival time, dose: 12.0 mg/kg/injection, schedule: Q04DX003 (ip), vehicle: saline, higher = longer survival) 93 % of control; (endpoint: median survival time, dose: 16.0 mg/kg/injection, schedule: Q01DX001 (ip), vehicle: saline, higher = longer survival) 110 % of control; (endpoint: median survival time, dose: 18.0 mg/kg/injection, schedule: Q04DX003 (ip), vehicle: saline, higher = longer survival) 108 % of control; (endpoint: median survival time, dose: 20.0 mg/kg/injection, schedule: Q01DX001 (ip), vehicle: Klucel (hydroxypropylcellulose) (HPC), higher = longer survival) 95 % of control. Further, the T/C by setting is: (endpoint: median survival time, dose: 24.0 mg/kg/injection, schedule: Q01DX001 (ip), vehicle: saline, higher = longer survival) 96 % of control; (endpoint: median survival time, dose: 36.0 mg/kg/injection, schedule: Q01DX001 (ip), vehicle: saline, higher = longer survival) 98 % of control.

Consider `O=C(O)/C=C\C(=O)Nc1nccs1`, for which the T/C under setting [8] is 87 % of control and the T/C under setting [9] was 85 % of control.

For `COc1cc(OC)c(OC)cc1/C=C\c1ccnc2ccccc12`, the T/C by setting is: under setting [4], 94 % of control; under setting [10], 93 % of control; (endpoint: median survival time, dose: 400.0 mg/kg/injection, schedule: Q01DX009 (ip), vehicle: Klucel (hydroxypropylcellulose) (HPC), higher = longer survival) 97 % of control.

For `COC1OC(CNC(=O)N(C)N=O)C(O)C(O)C1O` (stereo unspecified), the T/C reads like this: (endpoint: median survival time, dose: 50.0 mg/kg/injection, schedule: Q01DX009 (ip), vehicle: saline, higher = longer survival) 102 % of control; (endpoint: median survival time, dose: 100.0 mg/kg/injection, schedule: Q01DX009 (ip), vehicle: saline, higher = longer survival) 112 % of control; (endpoint: median survival time, dose: 200.0 mg/kg/injection, schedule: Q01DX009 (ip), vehicle: saline, higher = longer survival) 97 % of control.

In the case of `CCCCn1cnc2c(SC)nc(N)nc21`, the T/C by setting is: (endpoint: mean tumor weight, dose: 30.0 mg/kg/injection, schedule: Q01DX011 (ip), vehicle: other, higher = larger tumour) 79 % of control; (endpoint: mean tumor weight, dose: 60.0 mg/kg/injection, schedule: Q01DX011 (ip), vehicle: other, higher = larger tumour) 103 % of control; (endpoint: mean tumor weight, dose: 120.0 mg/kg/injection, schedule: Q01DX011 (ip), vehicle: other, higher = larger tumour) 124 % of control.

Consider `O=S(=O)(O)O`, for which the T/C by setting is: under setting [1], 94 % of control and 97 % of control and 121 % of control; under setting [2], 88 % of control and 91 % of control and 94 % of control; under setting [3], 94 % of control and 102 % of control and 107 % of control; under setting [4], 70 % of control and 94 % of control; under setting [10], 35 % of control and 42 % of control; under setting [11], 30 % of control and 32 % of control.

On to `c1ccc2cc3c(cc2c1)Cn1c-3nc2ccccc21`, for which the T/C is, setting by setting: under setting [8], 64 % of control; (endpoint: mean tumor weight, dose: 55.0 mg/kg/injection, schedule: Q01DX011 (ip), vehicle: carboxymethylcellulose (CMC), higher = larger tumour) 33 % of control and 48 % of control; (endpoint: mean tumor weight, dose: 80.0 mg/kg/injection, schedule: Q01DX011 (ip), vehicle: carboxymethylcellulose (CMC), higher = larger tumour) 52 % of control; under setting [9], 23 % of control; (endpoint: mean tumor weight, dose: 120.0 mg/kg/injection, schedule: Q01DX011 (ip), vehicle: carboxymethylcellulose (CMC), higher = larger tumour) 26 % of control; (endpoint: mean tumor weight, dose: 180.0 mg/kg/injection, schedule: Q01DX011 (ip), vehicle: carboxymethylcellulose (CMC), higher = larger tumour) 34 % of control. Besides, the T/C is 37 % of control (endpoint: mean tumor weight, dose: 200.0 mg/kg/injection, schedule: Q01DX011 (ip), vehicle: carboxymethylcellulose (CMC), higher = larger tumour) and 38 % of control (endpoint: mean tumor weight, dose: 400.0 mg/kg/injection, schedule: Q01DX011 (ip), vehicle: carboxymethylcellulose (CMC), higher = larger tumour).

In the case of `CC(C)C1(C(=O)NNC(=O)CCCc2ccc(N(CCCl)CCCl)cc2)OC2(O)CCCCCN2C1=O` (stereo unspecified), the T/C is 111 % of control (endpoint: median survival time, dose: 3.12 mg/kg/injection, schedule: Q04DX003 (ip), vehicle: DMSO, higher = longer survival); 116 % of control (endpoint: median survival time, dose: 6.25 mg/kg/injection, schedule: Q04DX003 (ip), vehicle: DMSO, higher = longer survival); 102 % of control (endpoint: median survival time, dose: 12.5 mg/kg/injection, schedule: Q04DX003 (ip), vehicle: DMSO, higher = longer survival).

`CC(=O)Nc1ccc(Cl)c(Cl)c1`: the T/C was 120 % of control and 124 % of control under setting [4]; 106 % of control under setting [10]; 98 % of control under setting [11].

For `CC1(C)[C@@H]2CC[C@]1(C)[C@H](O)C2`, the T/C reads like this: under setting [6], 100 % of control; under setting [7], 95 % of control; (endpoint: mean tumor weight, dose: 200.0 mg/kg/injection, schedule: Q01DX011 (ip), vehicle: saline, higher = larger tumour) 79 % of control; (endpoint: mean tumor weight, dose: 400.0 mg/kg/injection, schedule: Q01DX011 (ip), vehicle: saline, higher = larger tumour) 100 % of control.
